Data taken from patent publication US20190307843A1, “SINGLE DOSE METHODS FOR PREVENTING AND TREATING FUNGAL INFECTIONS” (Cidara Therapeutics, Inc., priority 2016, published 2019).
Several values for one entry are separate records, joined by “and”; a condition that tells them apart may be missing. Equal values may be shown once. Starred links: 1 amine or outer side, 2 acyl side, 3 side chain; linkers in the order of their positions; H or OH if unused. Positions of bridges follow the written chain, without caps; N, C: chain ends. Non-standard residues stand in square brackets, D forms with d. Residues, ends and D or L forms follow the SMILES beside them. *: point of attachment. hTyr(3S-OH,4S-OH,3'-OSO3H) = N[C@H](C(=O)O)[C@H](O)[C@@H](O)c1ccc(O)c(OS(=O)(=O)O)c1; Orn(4R-OH,5R-OH) = O=C([C@H](C[C@@H](O)[C@@H](O)N[*:3])N[*:1])[*:2]; Pro(3S-OH,4S-Me) = C[C@H]1CN[C@H](C(=O)O)[C@H]1O; X1 = CCCCCOc1ccc(-c2cc(-c3ccc(C(=O)*)cc3)no2)cc1; Gln(3R-OH) = NC(=O)C[C@@H](O)[C@H](N)C(=O)O; Hyp = O=C(O)[C@@H]1C[C@@H](O)CN1

Assays:
[1] = system: C. auris; experiment: Murine model of disseminated candidiasis, C. auris infection, kidney CFU and survival; format: in vivo, Candida auris
[2] = system: C. albicans SC-5314 biofilms; experiment: Adhesion phase biofilms (prevention), XTT metabolic activity and CSLM; format: cell-based, Candida albicans
[3] = system: C. albicans SC-5314 biofilms; experiment: Mature phase biofilms (treatment), XTT metabolic activity and CSLM; format: cell-based, Candida albicans
[4] = format: in vivo, rat; details: rat, in vivo
Experimental: The rats were monitored at a frequency appropriate for their clinical condition. Rat weights were recorded at least once daily to ensure animals remained within ethical limits.

[5] = system: A. fumigatus AF293; experiment: Pulmonary aspergillosis, prophylaxis, neutropenic ICR mice (Examples 17, 18), survival; format: in vivo, Aspergillus fumigatus; details: micafungin 5 mg/kg
Experimental: Intranasal infection with A. fumigatus AF293 (10^5 CFU/mouse) on Day 0. Prophylaxis CD101 as a single dose (IP; 5, 10, 20 mg/kg) or posaconazole (PO; 2 and 10 mg/kg) 1 day prior to infection. Survival monitored for 10 days.
Intranasal challenge with A. fumigatus AF293 (10^5 CFU/mouse) was initiated on Day 0 and prophylaxis with CD101 as a single dose (IP; 5, 10, 20 mg/kg) or posaconazole (PO; 2 and 10 mg/kg) was started 1 day prior to infection. Survival was monitored for 10 days.

[6] = system: A. fumigatus AF293; experiment: Murine model of pulmonary aspergillosis (Example 19), survival
[7] = system: A. fumigatus strain AF293; experiment: Murine model of pulmonary aspergillosis (Example 13), terminal lung burden; format: in vivo, Aspergillus fumigatus
Experimental: A secondary endpoint for the study was terminal lung tissue burden. Immediately following confirmation of death, carcasses were frozen at −20° C. prior to tissue dissection and processing. The frozen carcasses were thawed at room temperature and the lungs removed and placed into pre-weighed bead-beating tubes containing 2 mL of PBS and subjected to mechanical disruption. Organ homogenates were diluted further in PBS and quantitatively cultured for A. fumigatus onto SABC and incubated at 30° C. for 24-48 hours. In addition, a 300 μL aliquot of the undiluted lung tissue homogenate was stored at −80° C. for possible optional assessment of burden by qPCR.

[8] = system: Candida albicans SC5314; details: 24 hr
[9] = fluconazole 1 and 4 μg/ml, 24 h
[10] = Micafungin 5 mg/kg IP once, Day 1 pre-infection

| Structure (SMILES) | percent survival at the end of the study [1] [%] | thickness of biofilms ([2]; fluconazole) | biofilm formation by metabolic activity (XTT) [2, 9] | thickness of biofilms ([3]; fluconazole) | effect on mature biofilms [3, 9] | tolerability [4] | survival [5] | survival time post infection, range ([6]; Micafungin 5 mg/kg IP once) [h] | Mean Survival [6, 10] | Median Survival [6, 10] | survival ([6]; micafungin 5 mg/kg once one day pre-infection) | Group Geometric mean (lung burden) ([7]; Micafungin 2 mg/kg IP Day 0) | Log10 Group Geometric mean (lung burden) ([7]; Micafungin 2 mg/kg IP Day 0) [CFU/g] | Log10 reduction from vehicle control ([7]; Micafungin 2 mg/kg IP Day 0) [CFU/g] | Group Geometric mean (lung burden) ([7]; Micafungin 2 mg/kg IP Day −1) | Log10 Group Geometric mean (lung burden) ([7]; Micafungin 2 mg/kg IP Day −1) [CFU/g] | Log10 reduction from vehicle control ([7]; Micafungin 2 mg/kg IP Day −1) [CFU/g] | CFU clearance ([8]; micafungin IP 10 mg/kg) | CFU reduction ([8]; micafungin IP 1, 3, 10 mg/kg) |
| --- | --- | --- | --- | --- | --- | --- | --- | --- | --- | --- | --- | --- | --- | --- | --- | --- | --- | --- | --- |
| OC(Cn1cncn1)(Cn1cncn1)c1ccc(F)cc1F [fluconazole] | 0 | no effect on biofilm thickness | did not inhibit biofilm formation | no effect | did not affect Candida biofilms | well tolerated with no adverse events observed | – | – | – | – | – | – | – | – | – | – | – | – | – |
| CCCCCOc1ccc(-c2cc(-c3ccc(C(=O)N[C@H]4C[C@@H](O)[C@@H](O)NC(=O)[C@@H]5[C@@H](O)[C@@H](C)CN5C(=O)[C@H]([C@H](O)CC(N)=O)NC(=O)[C@H]([C@H](O)[C@@H](O)c5ccc(O)c(OS(=O)(=O)O)c5)NC(=O)[C@@H]5C[C@@H](O)CN5C(=O)[C@H]([C@@H](C)O)NC4=O)cc3)no2)cc1 [Micafungin, micafungin] (X1-[Orn(4R-OH,5R-OH)]T[Hyp][hTyr(3S-OH,4S-OH,3'-OSO3H)][Gln(3R-OH)][Pro(3S-OH,4S-Me)]; lactam 1-C) | – | – | – | – | – | – | no survivors | 71 to 162 | 92 h and 92.0 h | 80 h and 80.0 h | did not show any improvement in survival | 1.08 × 10^4 CFU/g | 4.03 | −0.26 | 4.34 x 10^4 CFU/g | 4.64 | −0.86 | complete clearance was only observed with the 10 mg/kg dose | good dose response in CFU reduction |
